# Data reported in patent US20220264878A1, “HERBICIDAL COMPOSITION CONTAINING R-TYPE PYRIDYLOXY CARBOXYLIC ACID DERIVATIVE AND USE THEREOF” (Qingdao Kingagroot Chemical Compound Co., Ltd., priority 2019, published 2022).
# Key:
# Assay type in all cases: in vivo
# Echinochloa oryzoides [1] = assay: Post-emergence foliage spray, pot culture, fresh weight inhibition (Tables 1-48, 51-98, 101-148; 24 days)
# In short: (§1)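 Pot-grown weeds were thinned to 15 per pot (45 per treatment) and sprayed on foliage at the 5–6-leaf stage for grasses or the 6–7-leaf stage for broadleaves. Agents were dissolved in acetone with 0.1% Tween-80 and applied at 450 kg/ha spray volume and 0.3 MPa. Plants were then kept in a greenhouse. Above-ground fresh weight of survivors, with dead plants counted as zero, gave inhibition versus a solvent/emulsifier blank.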
# Echinochloa oryzoides [2] = assay: Soil sealing treatment, pot culture, fresh weight inhibition (Tables 149, 150)
# Method: A method for investigating absolute number was employed, wherein whole seedlings of survival weeds were cut off with a blade along the soil surface, and the fresh weight of the weeds was weighed with an analytical balance. For dead weeds, the fresh weight thereof was zero.
# Theoretical fresh weight inhibition rate of a combination of two active ingredients in each group was calculated by the Gowing method (E0=X+Y−X*Y/100), and then compared with an actually measured inhibition rate (E), thereby effect of the combination (hereafter referred to as combined effect) on weeds was evaluated: the value of E-E0, which was greater than 10%, corresponded to a synergistic effect, the value of E-E0, which was less than −10%, corresponded to an antagonistic effect, and the value of E-E0, which was from −10% to 10%, corresponded to an additional effect. […] Wherein, in the formula, X represented the fresh weight inhibition rate of the active ingredient A in a dosage of P, and Y represented the fresh weight inhibition rate of the active ingredient B in a dosage of Q.
# Echinochloa crusgalli var zelayensis were collected in Huai'an of Jiangsu Province; Echinochloa caudate were collected in Pingluo of Ningxia Province; Echinochloa oryzoides were collected in Qiqiha'er of Heilongjiang Province.
# The culture was carried out in a controllable sunlight greenhouse at 20 to 30° C., in natural light, and relative humidity of 57% to 72%. […] The test soil was placed quantitatively to ¾ of the pots and then watered from the bottom of the pots to completely wet the soil to saturation. The pretreated test weed seeds were uniformly sowed on the surface, then covered with 0.5-2 cm soil according to the seed size, and ready-for use 24 hours after sowing.
# The technical materials were all dissolved in acetone, and diluted with an aqueous solution containing 0.1% emulsifier T-80. The dilution is performed as required.
# A ratio of A to the active ingredient B and amounts thereof in each group depends on the characteristics and toxicity of the two agents, as well as the main application purpose of a corresponding formulation. Based on the pre-tests in this study, the dosage of A and the active ingredient B applied alone and in combination were shown in the tables. Water containing the solvent and emulsifier same with the above groups but free of the agents was used as a blank control.
# 3 pots with 30 weed seeds per pot were treated in one treatment with 4 replications per treatment.
# The pots which were sowed and mulched were evenly placed on a platform with an area of 0.5 m^2, and a solution of agents was sprayed on soil surface thereof by the 3WP-2000-type walking spray tower at a dosage of […] and at a spray pressure of 0.3 MPa. After all the solution was sprayed, the valve was closed. After 30 seconds, the door of the spray tower was opened, and the nutritional bowl was taken out. Then the valve was opened, and the spray tube was cleaned by spraying 50 ml of water.
# This section was same as the section 4) in the post-emergence treatment by performing foliage spray, and was not repeated herein.
# Alopecurus japonicus = assay: Post-emergence foliage spray, pot culture, fresh weight inhibition (Tables 151-206; 20 days); conditions: 20 days
# In short: (§2)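 Field-collected weeds grown in pots in a greenhouse (20-30° C., natural light, 57-72% RH), 15 per pot, 3 pots × 4 replicates. Single foliar spray at 4-5 leaves (grasses) or 5-6 leaves (broadleaf) with acetone/0.1% Tween-80 dilutions at 450 kg/ha, 0.3 MPa. Above-ground fresh weight inhibition versus solvent blank at 20 days.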
# Digitaria sanguinalis = assay: as above; conditions: 20 days
# In short: as §2
# Eleusine indica = assay: as above; conditions: 20 days
# In short: as §2
# Sinapis arvensis = assay: as above; conditions: 20 days
# In short: as §2
# Amaranthus retroflexus = assay: as above; conditions: 20 days
# In short: (§3)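 Pre-germinated seeds (25° C soak 6 h, 28° C dark) grown in pots, thinned to 15 per pot; foliage-sprayed at 4~5-leaf (grasses) or 5~6-leaf (broadleaf) stage, 450 kg/ha spray volume, 0.3 MPa. Agents in acetone diluted with 0.1% Tween-80 water; solvent blank control. Above-ground fresh weight weighed, dead weeds scored zero.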
# Capsella bursa-pastoris = assay: as above; conditions: 20 days
# In short: as §3
# Galium aparine L. = assay: Post-emergence foliage spray, pot culture, fresh weight inhibition (Tables 1-48, 51-98, 101-148; 24 days); conditions: 24 days
# In short: as §1
# Malachium aquaticum = assay: as above
# In short: as §1
# Stellaria media = assay: as above; conditions: Table 105
# In short: as §1
smiles,measurement,setting,value
"C[C@@H](Oc1nc(F)c(Cl)c(N)c1Cl)C(=O)[O-].[K+] [Compound A4, A1 potassium salt]",Control effect (%) of A applied alone in corresponding dose,Echinochloa oryzoides [1]; A 75 g a.i./ha,52.6%
same,Control effect (%) of A applied alone in corresponding dose,Echinochloa oryzoides [1]; A 150 g a.i./ha,74.7%
same,Control effect (%) of A applied alone in corresponding dose,"Echinochloa oryzoides [1]; Table 101, 75 g a.i./ha",52.6%
same,Control effect (%) of A applied alone in corresponding dose,"Echinochloa oryzoides [1]; Table 101, 150 g a.i./ha",74.7%
same,Control effect (%) of A applied alone in corresponding dose,"Echinochloa oryzoides [1]; Table 102, 75 g a.i./ha",52.6%
same,Control effect (%) of A applied alone in corresponding dose,"Echinochloa oryzoides [1]; Table 102, 150 g a.i./ha",74.7%
same,Control effect (%) of A applied alone in corresponding dose,"Echinochloa oryzoides [1]; Table 104, 75 g a.i./ha",52.6%
same,Control effect (%) of A applied alone in corresponding dose,"Echinochloa oryzoides [1]; Table 104, 150 g a.i./ha",74.7%
same,Control effect (%) of A applied alone in corresponding dose,"Echinochloa oryzoides [1]; Table 106, 75 g a.i./ha",52.6%
same,Control effect (%) of A applied alone in corresponding dose,"Echinochloa oryzoides [1]; Table 106, 150 g a.i./ha",74.7%
same,Control effect (%) of A applied alone in corresponding dose,"Echinochloa oryzoides [1]; Table 107, 75 g a.i./ha",52.6%
same,Control effect (%) of A applied alone in corresponding dose,"Echinochloa oryzoides [1]; Table 107, 150 g a.i./ha",74.7%
same,Control effect (%) of A applied alone in corresponding dose,"Echinochloa oryzoides [1]; Table 108, 75 g a.i./ha",52.6%
same,Control effect (%) of A applied alone in corresponding dose,"Echinochloa oryzoides [1]; Table 108, 150 g a.i./ha",74.7%
same,Control effect (%) of A applied alone in corresponding dose,"Echinochloa oryzoides [1]; Table 109, 75 g a.i./ha",52.6%
same,Control effect (%) of A applied alone in corresponding dose,"Echinochloa oryzoides [1]; Table 109, 150 g a.i./ha",74.7%
same,Control effect (%) of A applied alone in corresponding dose,"Echinochloa oryzoides [1]; Table 110, 75 g a.i./ha",52.6%
same,Control effect (%) of A applied alone in corresponding dose,"Echinochloa oryzoides [1]; Table 110, 150 g a.i./ha",74.7%
same,Control effect (%) of A applied alone in corresponding dose,Echinochloa oryzoides [2]; A 75 g a.i./ha,18.9%
same,Control effect (%) of A applied alone in corresponding dose,Echinochloa oryzoides [2]; A 150 g a.i./ha,42.5%
same,Control effect (%) of A applied alone in corresponding dose,Alopecurus japonicus; A 75 g a.i./ha,24.9%
same,Control effect (%) of A applied alone in corresponding dose,Alopecurus japonicus; A 150 g a.i./ha,47.2%
same,Control effect (%) of A applied alone in corresponding dose,Digitaria sanguinalis; A 75 g a.i./ha,22.2%
same,Control effect (%) of A applied alone in corresponding dose,Digitaria sanguinalis; A 150 g a.i./ha,56.4%
same,Control effect (%) of A applied alone in corresponding dose,Eleusine indica; A 75 g a.i./ha,38.5%
same,Control effect (%) of A applied alone in corresponding dose,Eleusine indica; A 150 g a.i./ha,69.2%
same,Control effect (%) of A applied alone in corresponding dose,Sinapis arvensis; A 75 g a.i./ha,41.1%
same,Control effect (%) of A applied alone in corresponding dose,Sinapis arvensis; A 150 g a.i./ha,65.9%
same,Control effect (%) of A applied alone in corresponding dose,Amaranthus retroflexus; A 75 g a.i./ha,26.7%
same,Control effect (%) of A applied alone in corresponding dose,Amaranthus retroflexus; A 150 g a.i./ha,57.2%
same,Control effect (%) of A applied alone in corresponding dose,Capsella bursa-pastoris; A 75 g a.i./ha,44.2%
same,Control effect (%) of A applied alone in corresponding dose,Capsella bursa-pastoris; A 150 g a.i./ha,67.2%
COc1ncc(F)c2nc(S(=O)(=O)Nc3c(F)cccc3F)nn12 [florasulam],Control effect (%) of B applied alone in corresponding dose,Galium aparine L.; B 0.375 g a.i/ha,4.8%
same,Control effect (%) of B applied alone in corresponding dose,Galium aparine L.; B 0.75 g a.i/ha,20.6%
same,Control effect (%) of B applied alone in corresponding dose,Galium aparine L.; B 1.5 g a.i/ha,56.3%
same,Control effect (%) of B applied alone in corresponding dose,Galium aparine L.; B 3.0 g a.i/ha,76.2%
same,Control effect (%) of B applied alone in corresponding dose,Malachium aquaticum; florasulam 0.375 g a.i./ha,3.6%
same,Control effect (%) of B applied alone in corresponding dose,Malachium aquaticum; florasulam 0.75 g a.i./ha,17.4%
same,Control effect (%) of B applied alone in corresponding dose,Malachium aquaticum; florasulam 1.5 g a.i./ha,56.4%
same,Control effect (%) of B applied alone in corresponding dose,Malachium aquaticum; florasulam 3.0 g a.i./ha,77.6%
same,Control effect (%) of B applied alone in corresponding dose,Stellaria media; 0.375 g a.i./ha,6.8%
same,Control effect (%) of B applied alone in corresponding dose,Stellaria media; 0.75 g a.i./ha,22.3%
same,Control effect (%) of B applied alone in corresponding dose,Stellaria media; 1.5 g a.i./ha,56.9%
same,Control effect (%) of B applied alone in corresponding dose,Stellaria media; 3.0 g a.i./ha,76.6%
